Laboratory results published in US8703483B2, “Reagents and methods for using human embryonic stem cells to evaluate toxicity of pharmaceutical compounds and other chemicals” (Wisconsin Alumni Research Foundation, priority 2006, dated 2014).

Test system: human embryonic stem cells
Experiment: Metabolite profiling (LC/ESI-TOF mass spectrometry) of extracellular media of hESCs treated with alcohol
Assay type: cell-based
From the text: Binned masses were annotated in silico by querying the neutral masses in several different databases. These databases included Metlin, Biological Magnetic Resonance Data Bank (BMRB), NIST Chemistry WebBook, and the Human Metabolome Database. A mass was considered identified when its neutral mass was within 10 ppm of a known compound annotated in one of the databases listed above.

With `CCO` [ETOH] the “Fold: Unknown, mass 646.7084, RT 5.903429” value (ETOH 0.1, 4 D) was −1.271 fold, the “Fold: Unknown, mass 661.3846, RT 26.7452” value (ETOH 0.1, 4 D) was 1.295 fold and the “Fold: Unknown, mass 693.4124, RT 31.11764” value (ETOH 0.1, 4 D) was 2.318 fold. The “Fold: Unknown, mass 699.9225, RT 33.70266” value (ETOH 0.1, 4 D) was 1.719 fold, the “Fold: Unknown, mass 707.3928, RT 34.62439” value (ETOH 0.1, 4 D) was 2.137 fold and the “Fold: Unknown, mass 708.9387, RT 33.73428” value (ETOH 0.1, 4 D) was 2.16 fold. The “Fold: Unknown, mass 730.4494, RT 33.89008” value (ETOH 0.1, 4 D) was 2.614 fold, the “Fold: Unknown, mass 731.0954, RT 47.76987” value (ETOH 0.1, 4 D) was −2.776 fold and the “Fold: Unknown, mass 732.007, RT 5.918027” value (ETOH 0.1, 4 D) was 1.795 fold. The “Fold: Unknown, mass 751.4193, RT 35.028” value (ETOH 0.1, 4 D) was 1.87 fold, the “Fold: Unknown, mass 752.4629, RT 34.12668” value (ETOH 0.1, 4 D) was 2.067 fold and the “Fold: Unknown, mass 774.4767, RT 34.33545” value (ETOH 0.1, 4 D) was 2.104 fold. The “Fold: Unknown, mass 774.5055, RT 89.29926” value (ETOH 0.1, 4 D) was −2.401 fold, the “Fold: Unknown, mass 780.241, RT 5.886782” value (ETOH 0.1, 4 D) was −1.314 fold and the “Fold: Unknown, mass 796.4891, RT 34.52749” value (ETOH 0.1, 4 D) was 1.927 fold. The “Fold: Unknown, mass 796.9917, RT 34.60124” value (ETOH 0.1, 4 D) was 1.818 fold, the “Fold: Unknown, mass 820.8181, RT 4.613879” value (ETOH 0.1, 4 D) was −1.47 fold and the “Fold: Unknown, mass 888.8041, RT 5.259716” value (ETOH 0.1, 4 D) was −1.458 fold. The “Fold: Unknown, mass 921.0025, RT 5.399211” value (ETOH 0.1, 4 D) was 1.678 fold, the “Fold: Unknown, mass 1008.072, RT 3.705141” value (ETOH 0.1, 4 D) was 1.304 fold and the “Fold: Unknown, mass 1038.786, RT 5.177162” value (ETOH 0.1, 4 D) was 1.678 fold. For the same compound, the “Fold: glucuronide, mass 471.1928, RT 30.37291” value (ETOH 0.1, 4 D) was 2.001 fold, the “Fold: 3,4-Dihydroxybutyric acid, mass 129.0452, RT 16.73904” value (ETOH 0.1, 24 H) was 1.502 fold and the “Fold: 3-Methylindole, mass 131.0746, RT 22.22892” value (ETOH 0.1, 24 H) was −1.857 fold. The “Fold: (+/−)-2-(4′-Isobutylphenyl)propionitrile, mass 187.1343, RT 22.17997” value (ETOH 0.1, 24 H) was 1.488 fold, the “Fold: GABA analogue, mass 171.1244, RT 26.70635” value (ETOH 0.1, 24 H) was 2.376 fold and the “Fold: Malonylcarnitine, mass 229.0949, RT 24.52067” value (ETOH 0.1, 24 H) was −2.33 fold. The “Fold: Oxidized glutathione (Glutathione disulfide; GSSG; Oxiglutatione), mass 612.1509, RT 8.056862” value (ETOH 0.1, 24 H) was −1.474 fold, the “Fold: Unknown, mass 130.9541, RT 88.64043” value (ETOH 0.1, 24 H) was 1.632 fold and the “Fold: Unknown, mass 148.0052, RT 3.958833” value (ETOH 0.1, 24 H) was −1.948 fold. The “Fold: Unknown, mass 266.1613, RT 64.66999” value (ETOH 0.1, 24 H) was −1.519 fold, the “Fold: Unknown, mass 271.9364, RT 4.86619” value (ETOH 0.1, 24 H) was 2.629 fold and the “Fold: Unknown, mass 272.16, RT 43.99398” value (ETOH 0.1, 24 H) was 1.93 fold. The “Fold: Unknown, mass 285.2285, RT 63.00428” value (ETOH 0.1, 24 H) was 4.003 fold, the “Fold: Unknown, mass 294.0957, RT 6.160071” value (ETOH 0.1, 24 H) was 1.269 fold and the “Fold: Unknown, mass 296.2308, RT 71.55535” value (ETOH 0.1, 24 H) was 3.545 fold. The “Fold: Unknown, mass 300.1656, RT 17.18696” value (ETOH 0.1, 24 H) was 1.549 fold, the “Fold: Unknown, mass 337.2012, RT 8.542672” value (ETOH 0.1, 24 H) was 1.402 fold and the “Fold: Unknown, mass 362.2787, RT 83.72506” value (ETOH 0.1, 24 H) was 2.82 fold. For the same compound, the “Fold: Unknown, mass 379.1771, RT 20.76168” value (ETOH 0.1, 24 H) was −1.723 fold, the “Fold: Unknown, mass 387.0812, RT 19.97914” value (ETOH 0.1, 24 H) was 1.739 fold and the “Fold: Unknown, mass 388.1815, RT 17.53242” value (ETOH 0.1, 24 H) was −1.449 fold. The “Fold: Unknown, mass 393.1889, RT 15.90129” value (ETOH 0.1, 24 H) was −1.431 fold, the “Fold: Unknown, mass 396.1687, RT 6.259963” value (ETOH 0.1, 24 H) was 1.718 fold and the “Fold: Unknown, mass 437.2042, RT 32.18393” value (ETOH 0.1, 24 H) was 24.53 fold. For the same compound, the “Fold: Unknown, mass 462.2217, RT 22.95657” value (ETOH 0.1, 24 H) was −1.986 fold, the “Fold: Unknown, mass 464.225, RT 25.3287” value (ETOH 0.1, 24 H) was −1.631 fold and the “Fold: Unknown, mass 482.3062, RT 72.7735” value (ETOH 0.1, 24 H) was −1.959 fold. The “Fold: Unknown, mass 485.2069, RT 6.676207” value (ETOH 0.1, 24 H) was −2.014 fold, the “Fold: Unknown, mass 521.9924, RT 34.35986” value (ETOH 0.1, 24 H) was −1.446 fold and the “Fold: Unknown, mass 577.2825, RT 16.90923” value (ETOH 0.1, 24 H) was 1.728 fold. For the same compound, the “Fold: Unknown, mass 677.9101, RT 33.48766” value (ETOH 0.1, 24 H) was −2.221 fold, the “Fold: Unknown, mass 695.4286, RT 28.2045” value (ETOH 0.1, 24 H) was −32.9384 fold and the “Fold: Unknown, mass 707.4296, RT 56.18269” value (ETOH 0.1, 24 H) was 1.49 fold. The “Fold: Unknown, mass 711.8344, RT 4.826824” value (ETOH 0.1, 24 H) was −3.021 fold, the “Fold: Unknown, mass 765.5211, RT 69.32865” value (ETOH 0.1, 24 H) was 1.873 fold and the “Fold: Unknown, mass 909.5934, RT 8.502051” value (ETOH 0.1, 24 H) was 2.274 fold. The “Fold: Unknown, mass 913.8074, RT 5.217833” value (ETOH 0.1, 24 H) was −1.861 fold, the “Fold: Unknown, mass 994.0917, RT 3.646902” value (ETOH 0.1, 24 H) was 1.442 fold and the “Fold: 3,4-Dihydroxybutyric acid, mass 120.0436, RT 3.767232” value (ETOH 0.3, 4 D) was 1.936 fold. For the same compound, the “Fold: 3-(2,5-Dimethoxy phenylpropionic acid, mass 210.0922, RT 36.18938)” value (ETOH 0.3, 4 D) was 1.85 fold, the “Fold: 3-Methylindole, mass 131.0746, RT 22.22892” value (ETOH 0.3, 4 D) was 2.502 fold and the “Fold: 5-Ethyl-5-(1-methyl-3-carboxypropyl)barbituric acid, mass 256.1066, RT 18.84552” value (ETOH 0.3, 4 D) was −2.141 fold. For the same compound, the “Fold: 5-Methoxytryptophan, mass 234.1253, RT 53.26863” value (ETOH 0.3, 4 D) was −1.624 fold, the “Fold: (+)-Eudesmin, mass 386.1724, RT 51.65871” value (ETOH 0.3, 4 D) was 4.851 fold and the “Fold: Amino-4methylthiobutyric acid, mass 149.0511, RT 7.479235” value (ETOH 0.3, 4 D) was −1.305 fold. For the same compound, the “Fold: Benzenemethanol, 2-(2-aminopropoxy)-3-methyl- / a-[1-(ethylamino)ethyl]-p-hydroxy-Benzyl alcohol, mass 195.124, RT 31.19917” value (ETOH 0.3, 4 D) was −1.86 fold, the “Fold: Homogentisic acid / Vanillic acid, mass 168.0434, RT 19.18355” value (ETOH 0.3, 4 D) was 1.282 fold and the “Fold: L-Histidine / 4-propionic acid, mass 155.0681, RT 5.559732” value (ETOH 0.3, 4 D) was 1.638 fold. For the same compound, the “Fold: Malonylcarnitine, mass 229.0949, RT 24.52067” value (ETOH 0.3, 4 D) was −1.74 fold, the “Fold: N-Methyl-2-pyrrolidinone, mass 99.0689, RT 15.48433” value (ETOH 0.3, 4 D) was 1.338 fold and the “Fold: Pantothenol / dimethylbutanamide;, mass 205.1304, RT 6.747279” value (ETOH 0.3, 4 D) was −1.339 fold. For the same compound, the “Fold: Phenanthrene-9,10-oxide / 9-Hydroxyphenanthrene; 9-Phenanthrol, mass 194.073, RT 5.935143” value (ETOH 0.3, 4 D) was −1.4 fold, the “Fold: Thiosulfate, mass 111.9839, RT 4.032816” value (ETOH 0.3, 4 D) was −8.676 fold and the “Fold: Unknown, mass 120.2112, RT 13.40565” value (ETOH 0.3, 4 D) was 3.9 fold. For the same compound, the “Fold: Unknown, mass 131.076, RT 14.35336” value (ETOH 0.3, 4 D) was 4.05 fold, the “Fold: Unknown, mass 162.0662, RT 44.88033” value (ETOH 0.3, 4 D) was 1.799 fold and the “Fold: Unknown, mass 201.1709, RT 19.48063” value (ETOH 0.3, 4 D) was −2.979 fold. The “Fold: Unknown, mass 218.0762, RT 6.62669” value (ETOH 0.3, 4 D) was −1.771 fold, the “Fold: Unknown, mass 229.1457, RT 55.50731” value (ETOH 0.3, 4 D) was −1.533 fold and the “Fold: Unknown, mass 243.11, RT 27.39631” value (ETOH 0.3, 4 D) was −1.495 fold. The “Fold: Unknown, mass 247.1049, RT 6.626769” value (ETOH 0.3, 4 D) was −4.476 fold, the “Fold: Unknown, mass 247.1408, RT 9.0276” value (ETOH 0.3, 4 D) was −2.751 fold and the “Fold: Unknown, mass 267.2543, RT 40.75868” value (ETOH 0.3, 4 D) was −1.6481 fold.
